Test results reported in patent US20230302131A1, “MPC INHIBITION FOR PRODUCING T-CELLS WITH A MEMORY PHENOTYPE” (UNIVERSITÉ DE LAUSANNE, priority 2020, published 2023).

Assays:
OT1 CD8 T cells = assay: ATAC sequencing of OT1 CD8 T cells; assay type: cell-based, mouse; details: ATAC-seq after 3 days of culture; vs DMSO
Source text: (§1) Mechanistically, it was hypothesized by the inventors that epigenetic processes might underlie the observed long-term memory phenotype and anti-tumor activity upon metabolic intervention with MPCi. […] Since acetyl-CoA is the acetyl donor for the acetylation of proteins, amongst which also histones, histone post-translational modifications were examined that are known to make chromatin accessible to transcription factors, a characteristic of memory T cells. […] These are marks known to open chromatin and make it accessible for transcription factor docking. […] Amongst those were Sell, Tcf7 and Ccr7, thereby correlating accessible chromatin with increased mRNA copies (FIG. 3E and see above).
After 3 days of OT1 CD8 T cell culture, 5×10^4 cells were collected and transposed as described before (Buenrostro et al, Transposition of native chromatin for multimodal regulatory analysis and personal epigenomics. Nat Methods. 2013 December; 10(12): 1213-1218.). Amplified transposed fragments were sequenced on an Illumina HiSeq platform.
Computations of the analysis were performed at the Vital-IT Center for high-performance computing of the SIB Swiss Institute of Bioinformatics. Sequencing reads contained in fastq files were aligned to the Mouse mm10 reference genome using Bowtie2 v.2.3.4.1, and alignment files were manipulated with samtools v.1.8. Peak calling was performed with Macs2 v.2.1.1. […]

OT1 splenocytes = assay: Metabolomics, acetyl-CoA and 13C tracing by mass spectrometry; assay type: cell-based, mouse
Source text: as §1
OT1 splenocytes were activated and cultured as described above. After 66 hours, the cells were collected and the medium was replaced with glucose- and glutamine-free RPMI, supplemented with 10% dialyzed FBS, 1% P/S, 10 mM HEPES, 50 μM β-mercaptoethanol and either 11 mM normal glucose or 11 mM U-^13C6-glucose (Cambridge Isotopes) with respectively 4 mM ^13C5-glutamine (Cambridge Isotopes or 4 mM normal L-glutamine. After 6 hours labelling at 37° C., cells were collected and lysed in Methanol. Next Chloroform was added, and after centrifugation, the fraction containing the polar metabolites was collected and dried on a SpeedVac. Samples were then resuspended and loaded on a mass spectrometer. The spectra of AcetylCoA were analyzed with the M+0 representing the unlabeled fraction, and the M+2 representing the Acetyl group derived from the ^13C-labelled substrate (glucose or glutamine).

[1] = system: B16 melanoma tumors expressing HER2; assay: HER2-CAR T cell production with UK5099 and adoptive transfer into mice with B16 tumors expressing HER2; assay type: in vivo, mouse
Description: For each retroviral preparation, 8×10^6 Phoenix ECO cells (ATCC, CRL-3214) were plated in a T150 tissue culture flask in RPMI medium supplemented with 10% FCS, 10 mM HEPES and 50 U/ml Penicillin-Streptomycin. On the next day, cells were transfected with 21 μg of the retroviral construct with Turbofect transfection reagent (Thermo Fischer Scientific), according to the manufacturer protocol. The medium was changed daily and collected at 48 h and 72 h post transfection. 48 h and 72 h virus supernatants were pooled and sedimented at 22000rcf for 2 h at 4° C. Finally, retrovirus pellets were resuspended in 2 ml of full RPMI medium and divided in 8 aliquots of 250 μl each, which were snap-frozen on dry ice and stored at −80° C.
Spleens from wild type CD45.1.2 mice were smashed on a 70 µm cell strainer. CD8 T cells were purified using the EasySep™ Mouse CD8+ T Cell Isolation Kit (StemCell) according to the manufacturer protocol. 0.5×10^6 CD8 T cells were plated in 48 well plates in 0.5 ml of complete RPMI 1640 medium supplemented with 10% FCS, antibiotics and 50 IU/ml of recombinant human IL-2, and exposed to either DMSO or 20 μM UK5099. Mouse T-cells were activated with Activator CD3/CD28 Dynabeads (Gibco) at a ratio of 2 beads per cell. Retroviral infection was conducted at 37° C. for 24 h. Untreated 48-well plates were coated for 24 h with […] of recombinant human fibronectin (Takara Clontech) at 4° C., followed by PBS 2% BSA for 30 min at RT and finally washed with PBS. One aliquot of concentrated retroviruses was plated in each fibronectin-coated 48-well plates and centrifuged for 90 min at 2000rcf and 32° C. Then, 0.5×10^6 of 24 h-activated CD8 T cells were added on top of the viruses and spun for 10 min at 400rcf and 32° C. On day 3, the medium was replaced with 10 IU/ml recombinant human IL-2, 10 ng/ml recombinant human IL-7 and 10 ng/ml recombinant human IL-15, containing either DMSO or 20 μM UK5099. Cells were then split every second day.
CD45.2 C57BL/6 mice were engrafted subcutaneously with 4×10^5 B16F10 tumors modified to express HER2. Six days later, mice were lymphodepleted with 100 mg/kg cyclophosphamide (Sigma Aldrich, C7397) injected i.p., and homogeneous groups were constituted with regard to tumor volume. T cells (5×10^6) were adoptively transferred i.v. on the next day. Tumor volumes were measured three times a week with a caliper and calculated using the formula: V=π×[d2×D]/6, where d is the minor tumor axis and D is the major tumor axis. Tumors were collected and separated from skin. Single cell suspensions were obtained with the Mouse Tumor Dissociation Kit (Miltenyi, 130-096-730) according to the manufacturer protocol. Spleen and draining lymph node were smashed on a 70 µm cell strainer. Single cell suspensions were stained with antibodies before flow cytometry analysis.
Polyclonal CD8 T cells from wild type mice were activated in the presence of DMSO or 20 μM UK5099 and then retrovirally transduced with a control blue fluorescent protein-expressing retroviral construct (BFP) or with HER2-CAR (FIG. 6A). […] More UK5099-HER2CAR T cells were engrafted in the tumor-draining lymph nodes, while CAR T cell numbers in the spleen were similar (FIGS. 6C and 6D). […] As in the spleen, more tumor-infiltrating UK5099-treated CAR T cells expressed TCF1 (FIG. 6G). […] Finally, fewer UK5099-treated CAR T cells were expressing the inhibitory molecules PD1 and TIM3, indicating a less exhausted phenotype (FIG. 6J).

[2] = 20 μM during production, vs DMSO
[3] = co-expression of TCF1 with PD1, vs DMSO

N#CC(=Cc1cn(-c2ccccc2)c2ccccc12)C(=O)O [UK5099, 2-cyano-3-(1-phenyl-1H-indol-3-yl)-2-propenoic acid]
genes associated with more accessible chromatin (OT1 CD8 T cells): 981 genes | 13C-glutamine incorporation into acetyl-CoA (OT1 splenocytes; 6 hours labelling): incorporated dramatically more | 13C-labeled glucose incorporation into acetyl-CoA (OT1 splenocytes; 6 hours labelling): incorporating less | total acetyl-CoA levels (OT1 splenocytes; mass spectrometry, vs DMSO): strong increase | CAR T cell numbers in the spleen [1, 2]: similar | HER2CAR T cells engrafted in the tumor-draining lymph nodes [1, 2]: More | percentage of splenic HER2CAR T cells expressing TCF1 [1, 2]: higher percentage | tumor growth after HER2CAR T cell ACT ([1]; CAR T cells produced with 20 μM UK5099, 5×10^6 T cells i.v.): significantly suppress tumor growth | progenitor exhausted T cells (TCF1-positive) among CAR T cells in the tumor [1, 3]: more | terminally differentiated exhausted T cells (TCF1-negative) among CAR T cells in the tumor [1, 3]: less | CAR T cells expressing the inhibitory molecules PD1 and TIM3 ([1]; in the tumor, vs DMSO): fewer | CAR T cells in tumors ([1]; per mg of tumor, vs DMSO): significantly more | tumor-infiltrating CAR T cells expressing TCF1 ([1]; vs DMSO): more
